Experimental data as given in US8765940B2 (priority 2009, dated 2014).
Read-outs that look alike come from different tables or passages of the source.

What was measured:
PI3Kδ = PI3Kδ (Homo sapiens (Human), UniProt O00329); assay type: biochemical; conditions: PI3Kδ Alphascreen assay
[1] = system: mouse model of rheumatoid arthritis; conditions: in vivo; cited from earlier work
[2] = system: model of systemic lupus erythematosis; conditions: in vivo; cited from earlier work
p110δ = p110δ (Homo sapiens (Human), UniProt O00329); conditions: cited from earlier work
protein kinases = conditions: cited from earlier work
[3] = system: ovalbumin-induced airway inflammation; conditions: cited from earlier work
Class I PI 3-kinases = conditions: cited from earlier work
neutrophil migration = conditions: cited from earlier work
superoxide release = conditions: cited from earlier work

Sequence of PI3Kδ (O00329 whole entry): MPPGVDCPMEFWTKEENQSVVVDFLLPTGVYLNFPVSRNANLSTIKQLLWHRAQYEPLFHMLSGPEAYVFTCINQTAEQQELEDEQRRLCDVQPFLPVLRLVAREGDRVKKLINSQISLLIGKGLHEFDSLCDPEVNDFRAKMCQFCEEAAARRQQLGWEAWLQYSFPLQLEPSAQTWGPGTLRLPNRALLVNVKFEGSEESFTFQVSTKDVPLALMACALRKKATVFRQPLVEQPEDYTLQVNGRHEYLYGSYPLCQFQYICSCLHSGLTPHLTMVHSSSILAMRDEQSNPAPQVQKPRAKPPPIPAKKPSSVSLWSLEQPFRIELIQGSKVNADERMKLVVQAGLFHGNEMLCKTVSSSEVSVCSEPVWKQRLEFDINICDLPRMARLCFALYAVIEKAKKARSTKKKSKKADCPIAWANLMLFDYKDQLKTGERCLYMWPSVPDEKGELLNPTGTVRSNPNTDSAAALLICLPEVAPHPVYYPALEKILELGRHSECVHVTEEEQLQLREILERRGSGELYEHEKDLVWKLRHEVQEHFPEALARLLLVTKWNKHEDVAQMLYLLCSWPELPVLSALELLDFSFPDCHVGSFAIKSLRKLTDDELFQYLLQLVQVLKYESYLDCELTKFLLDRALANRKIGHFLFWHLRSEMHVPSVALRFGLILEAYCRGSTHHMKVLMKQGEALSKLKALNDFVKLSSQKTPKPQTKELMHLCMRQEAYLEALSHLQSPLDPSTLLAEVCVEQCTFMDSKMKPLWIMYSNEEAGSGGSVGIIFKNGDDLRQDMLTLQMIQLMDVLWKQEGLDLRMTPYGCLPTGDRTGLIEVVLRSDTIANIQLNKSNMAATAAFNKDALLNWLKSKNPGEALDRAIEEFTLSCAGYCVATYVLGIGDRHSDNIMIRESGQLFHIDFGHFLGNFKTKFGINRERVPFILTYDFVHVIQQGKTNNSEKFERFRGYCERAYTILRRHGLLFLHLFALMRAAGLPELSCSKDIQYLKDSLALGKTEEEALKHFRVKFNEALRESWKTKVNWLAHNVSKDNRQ
Sequence of PI3Kδ (P27986 whole entry partner): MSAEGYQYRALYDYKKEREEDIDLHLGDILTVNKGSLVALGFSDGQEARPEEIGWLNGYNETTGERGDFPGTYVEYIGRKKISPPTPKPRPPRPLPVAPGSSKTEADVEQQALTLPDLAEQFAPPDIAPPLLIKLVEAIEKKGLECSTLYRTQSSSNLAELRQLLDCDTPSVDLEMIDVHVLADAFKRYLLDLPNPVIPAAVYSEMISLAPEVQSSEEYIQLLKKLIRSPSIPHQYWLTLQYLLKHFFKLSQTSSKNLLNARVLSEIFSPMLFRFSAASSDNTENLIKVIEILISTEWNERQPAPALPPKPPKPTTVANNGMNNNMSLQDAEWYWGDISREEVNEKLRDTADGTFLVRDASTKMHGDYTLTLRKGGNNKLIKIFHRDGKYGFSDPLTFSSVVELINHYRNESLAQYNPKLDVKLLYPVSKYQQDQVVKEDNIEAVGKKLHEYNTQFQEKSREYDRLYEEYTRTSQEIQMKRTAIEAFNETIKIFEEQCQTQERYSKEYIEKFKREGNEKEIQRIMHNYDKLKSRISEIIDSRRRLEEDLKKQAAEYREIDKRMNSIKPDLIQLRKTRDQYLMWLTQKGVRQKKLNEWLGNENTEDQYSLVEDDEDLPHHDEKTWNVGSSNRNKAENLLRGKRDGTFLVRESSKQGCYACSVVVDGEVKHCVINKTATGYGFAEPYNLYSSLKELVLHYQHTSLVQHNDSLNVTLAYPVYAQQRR
Sequence of p110δ (O00329 whole entry, species assumed): as the sequence (O00329 whole entry) above
Sequence of p110δ (P27986 whole entry partner, species assumed): as the sequence (P27986 whole entry partner) above

Structure (SMILES) | Ki (PI3Kδ) [µM] | also measured
Cc1c(C(F)(F)F)nc2ccc(Cl)cc2c1N1CC(C)(C)c2ccc(N3CCOCC3)cc21 [6-chloro-4-(3,3-dimethyl-6-(4-morpholinyl)-2,3-dihydro-1H-indol-1-yl)-3-methyl-2-(trifluoromethyl)quinoline] | 0.985 | –
COc1cc2nc(C)c(C)c(N3CC(C)(C)c4ccc(N5CCOCC5)cc43)c2cc1Cl [6-chloro-4-(3,3-dimethyl-6-(4-morpholinyl)-2,3-dihydro-1H-indol-1-yl)-7-methoxy-2,3-dimethylquinoline] | 0.196 | –
COc1cc(N2CCOCC2)cc2c1ccn2-c1c(C)c(C)nc2ccc(Cl)cc12 [6-chloro-4-(4-methoxy-6-(4-morpholinyl)-1H-indol-1-yl)-2,3-dimethylquinoline] | 3.71 | –
COc1cc2nc(C)c(C)c(N3CC(C)(C)c4ccc(N5CCOCC5)c(C)c43)c2cc1Cl [6-chloro-7-methoxy-2,3-dimethyl-4-(3,3,7-trimethyl-6-(4-morpholinyl)-2,3-dihydro-1H-indol-1-yl)quinoline] | 3.96 | –
CC1(C)CN(c2c3c(nc4ccc(Cl)cc24)CCCC3)c2cc(N3CCOCC3)ccc21 [7-chloro-9-(3,3-dimethyl-6-(4-morpholinyl)-2,3-dihydro-1H-indol-1-yl)-1,2,3,4-tetrahydroacridine] | 2.62 | –
CC1(C)CN(c2c3c(nc4ccc(Cl)cc24)CCC3)c2cc(N3CCOCC3)ccc21 [7-chloro-9-(3,3-dimethyl-6-(4-morpholinyl)-2,3-dihydro-1H-indol-1-yl)-2,3-dihydro-1H-cyclopenta[b]quinoline] | 0.772 | –
CC1(C)CN(c2c3c(nc4ccc(Cl)cc24)C(C)(C)CC3)c2cc(N3CCOCC3)ccc21 [7-chloro-9-(3,3-dimethyl-6-(4-morpholinyl)-2,3-dihydro-1H-indol-1-yl)-3,3-dimethyl-2,3-dihydro-1H-cyclopenta[b]quinoline] | 0.111 | –
Cc1cc(Cl)c2nc(C)c(C)c(N3CC(C)(C)c4ccc(N5CCOCC5)cc43)c2c1 [8-chloro-4-(3,3-dimethyl-6-(4-morpholinyl)-2,3-dihydro-1H-indol-1-yl)-2,3,6-trimethylquinoline] | 3.18 | –
Cc1nc2c(Cl)cccc2c(N2CC(C)(C)c3ccc(N4CCOCC4)cc32)c1C [8-chloro-4-(3,3-dimethyl-6-(4-morpholinyl)-2,3-dihydro-1H-indol-1-yl)-2,3-dimethylquinoline] | 0.05 | –
Cc1c(-c2ccccn2)nc2cc(F)ccc2c1N1CC(CO)(CO)c2ccc(N3CCOCC3)cc21 [(1-(7-fluoro-3-methyl-2-(2-pyridinyl)-4-quinolinyl)-6-(4-morpholinyl)-2,3-dihydro-1H-indole-3,3-diyl)dimethanol] | 0.154 | –
O=C1NC(=O)/C(=C\c2ccc3nccnc3c2)S1 [AS 605240] | – | efficacy in a mouse model of rheumatoid arthritis [1]: efficacious; onset of disease in a model of systemic lupus erythematosis [2]: delay onset of disease
Cc1ccccc1-n1c(Cn2cnc3c(N)ncnc32)nc2cccc(C)c2c1=O [IC87114] | – | inhibits p110δ (p110δ): high nanomolar range (triple digit); activity against any protein kinases tested (protein kinases): no activity; inflammation and disease in a murine model of asthma [3]: significantly ameliorate inflammation and disease
O=c1cc(N2CCOCC2)oc2c(-c3ccccc3)cccc12 [LY294002] | – | IC50 (Class I PI 3-kinases; LY294002, read-out: IC50 values against each of these PI 3-kinases): ~1 µM; neutrophil migration (neutrophil migration): block; superoxide release (superoxide release): block
COC(=O)N1CCN(c2nc3cc(F)cc(F)c3c(N3CC4(CCOCC4)c4ncc(N5CCOCC5)cc43)c2C)CC1 [methyl 4-(5,7-difluoro-3-methyl-4-(6′-(4-morpholinyl)-2,3,5,6-tetrahydrospiro[pyran-4,3′-pyrrolo[3,2-b]pyridin]-1′(2′H)-yl)-2-quinolinyl)-1-piperazinecarboxylate] | 0.00149 | –
Cc1c(N2CCN(C(=O)OC(C)(C)C)CC2)nc2cc(F)cc(F)c2c1N1CC2(CCOCC2)c2ncc(N3CCOCC3)cc21 [tert-butyl 4-(5,7-difluoro-3-methyl-4-(6′-(4-morpholinyl)-2,3,5,6-tetrahydrospiro[pyran-4,3′-pyrrolo[3,2-b]pyridin]-1′(2′H)-yl)-2-quinolinyl)-1-piperazinecarboxylate] | 0.0124 | –
COC[C@H]1OC(=O)c2coc3c2[C@@]1(C)C1=C(C3=O)[C@@H]2CCC(=O)[C@@]2(C)C[C@H]1OC(C)=O [wortmannin] | – | IC50 (Class I PI 3-kinases; wortmannin, read-out: IC50 values against each of the various Class I PI 3-kinases): 0.001 to 0.01 µM; neutrophil migration (neutrophil migration): block; superoxide release (superoxide release): block
